Data taken from article PMC7274539, “The selective glucocorticoid receptor antagonist CORT125281 has tissue-specific activity” (The Journal of Endocrinology, 2020).

Columns and labels:
[1] = target: T1, human GR ligand-binding domain (Homo sapiens, UniProt P04150); experiment: MARCoNI peptide interaction profiling (coregulator-nuclear receptor interaction); assay type: biochemical; settings: for interactions at a number of motifs (dexamethasone-exclusive cluster): 1 µM; for ligand-induced interaction at the majority of coregulator motifs: cortisol 1 µM, dexamethasone 1 µM
T1 construct: purchased Invitrogen PV4689
T1 sequence (P04150 524-758 limits assumed): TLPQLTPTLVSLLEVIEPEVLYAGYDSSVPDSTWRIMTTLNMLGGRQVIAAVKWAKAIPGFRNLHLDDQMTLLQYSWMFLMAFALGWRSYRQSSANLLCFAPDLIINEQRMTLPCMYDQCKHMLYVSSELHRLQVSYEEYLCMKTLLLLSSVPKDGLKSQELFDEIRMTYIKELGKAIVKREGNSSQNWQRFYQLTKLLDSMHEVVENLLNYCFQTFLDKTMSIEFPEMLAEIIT
Protocol: As the assay utilizes human GR, experiments were performed with cortisol rather than corticosterone. […] Incubation was performed at 20°C in a PamStation96 (PamGene International, Den Bosch, Netherlands) for 40 min. Receptor binding to each peptide on the array, reflected by a fluorescent signal, was quantified by analysis of .tiff images using BioNavigator software (PamGene International).

GR [2] = tested on: GR; parameters: method as in Lahteenmaki et al. 1987, Kroon et al. 2018; settings: half maximal inhibitory concentration of the GR antagonist; ref Lahteenmaki et al. 1987, Kroon et al. 2018; cited from earlier work
male C57Bl/6J mice = experiment: Subchronic corticosterone exposure (pellet): body composition, organ weights, leukocytes, plasma insulin, glucose, lipids; assay type: in vivo
Protocol: (§1) All studies involving animals were approved by the institutional ethics committee on animal care and experimentation at the Leiden University Medical Center. The 8-week old male C57Bl/6J mice (Charles River) were housed in ventilated cages with a 12 h light:12 h darkness regime and ad libitum access to food and water. In the acute corticosterone exposure experiments, mice received a synthetic chow diet (Research Diets, New Brunswick, NJ, USA) containing vehicle or CORT125281 (6, 20 or 60 mg/kg/day, Corcept Therapeutics, Menlo Park, CA, USA) for 6 days. […] Mice were treated daily with vehicle, 60 mg/kg mifepristone (Corcept Therapeutics) or 60 mg/kg CORT125281 (dissolved in PBS with 0.1% Tween 80 and 0.5% hydroxypropylmethylcellullose, Corcept Therapeutics) via oral gavage for 5 days, after which mice were killed by CO2 inhalation. Throughout the experiment, body weight was monitored and body composition was determined with EchoMRI™ (Frankfurt, Germany). After 5 days, blood was collected from the lateral tail vain in paraoxon-coated capillaries after a 6-h fast. Plasma triglyceride, total cholesterol, free fatty acid, glucose and insulin levels were determined using commercially available kits (Roche; Instruchemie, Delfzijl, Netherlands and Crystal Chem, Zaandam, Netherlands). Blood concentrations of the major leukocyte classes, that is, lymphocytes, monocytes and eosinophils, were determined in whole blood using an automatic veterinary hematology analysis (Sysmex XT-2000iV; Goffin Meyvis, Etten-Leur, the Netherlands).
(§2) In both acute and subchronic corticosterone experiments, relevant tissues (including quadriceps muscle, interscapular BAT, gonadal white adipose tissue (WAT), adrenals, spleen, thymus, pituitary and hippocampus) were collected to determine tissue weight and/or for further molecular analysis.

androgen receptor = settings: ref Jung-Testas & Baulieu 1983, Gaillard et al. 1984, Kloosterboer et al. 1995, Kroon et al. 2018; cited from earlier work
progesterone receptor = tested on: progesterone receptor; parameters: method as in earlier work; settings: ref Jung-Testas & Baulieu 1983, Gaillard et al. 1984, Kloosterboer et al. 1995, Kroon et al. 2018; cited from earlier work
HPA-axis activity = tested on: HPA-axis activity; parameters: method as in Kroon et al. 2018; settings: chronic administration via the food; ref Kroon et al. 2018; cited from earlier work
GR [3] = settings: mifepristone; ref Havel et al. 1996, van den Heuvel et al. 2016, Kroon et al. 2018; cited from earlier work
[4] = tested on: GR transcriptional activity; experiment: Subchronic corticosterone exposure: RT-qPCR of GR and insulin target genes in tissues; assay type: in vivo, C57Bl/6J mice
Protocol: as §1, §2
(§3) Total RNA was isolated from snap-frozen tissues using TriPure isolation reagent (Roche). After reverse transcription to cDNA (Promega), RT-qPCR was performed using IQ SYBR-Green supermix and MyIQ thermal cycler (Bio-RAD CFX96). Primers were tested for high efficiency (90–110%) and for amplification of a single PCR product. All primer sequences are listed in Supplementary Table 1 (see section on supplementary materials given at the end of this article), with the exception of Ncor1 and Ncor2 which were purchased from Qiagen. Fold change expression was calculated using the 2^−ΔΔ^CT method.

[5] = tested on: GR transcriptional activity; experiment: Acute corticosterone exposure or basal conditions: RT-qPCR of GR target genes in tissues; assay type: in vivo, C57Bl/6J mice; settings: corticosterone 1.5 mg/kg s.c., 1 h; liver, muscle, BAT, WAT, hippocampus; except Sgk1 in muscle, hippocampus and Mt2a in hippocampus
Protocol: as §1, §2, §3

[6] = mifepristone 0.1 µM, CORT125281 1 µM
[7] = corticosterone pellet 5 days, 60 mg/kg/day oral gavage
[8] = corticosterone pellet 12.5 mg, 5 days, no antagonist

## C[C@@H]1C[C@H]2[C@@H]3CCC4=CC(=O)C=C[C@]4(C)[C@@]3(F)[C@@H](O)C[C@]2(C)[C@@]1(O)C(=O)CO [dexamethasone]
[1]
  interactions at a number of motifs (dexamethasone-exclusive cluster): induced substantial interactions
[1]; [6]
  ligand-induced interaction at the majority of coregulator motifs: induced motif binding

## CC#C[C@]1(O)CC[C@H]2[C@@H]3CCC4=CC(=O)CCC4=C3[C@@H](c3ccc(N(C)C)cc3)C[C@@]21C [mifepristone]
GR [2]
  IC50: 43 nM
Male C57Bl/6J mice; [7]
  HOMA-IR: improved
  corticosterone-induced decrease of spleen weight: prevented
  corticosterone-induced fat mass: non-significantly reduced
  corticosterone-induced hyperlipidaemia (plasma triglycerides, total cholesterol): seemed to modestly reduce
  corticosterone-induced immune suppression (total white blood cells, lymphocytes, monocytes, eosinophils): fully prevented
  free fatty acid levels: did not affect
  glucose levels: improved
  lean mass (reduced by corticosterone): not altered
Male C57Bl/6J mice; corticosterone pellet 5 days, 60 mg/kg/day oral gavage, 6-h fast
  corticosterone-induced hyperinsulinemia: fully prevented
Androgen receptor
  activity at the androgen receptor: antagonizes
Progesterone receptor
  activity at the progesterone receptor: antagonizes
HPA-axis activity
  endogenous corticosterone levels: suppressed
GR [3]
  partial agonism at GR: partial agonistic properties
[4]; 60 mg/kg/day oral gavage 5 days, sham pellet
  basal mRNA expression of some GR target genes (Gilz in liver, muscle and BAT; Mt2a in BAT): reduced
[4]; corticosterone pellet 5 days, 60 mg/kg/day oral gavage, liver, muscle, BAT, WAT, hippocampus
  corticosterone-induced expression of GR target genes (Fkbp5, Gilz, Sgk1, Mt2a): effectively prevented
[1]; [6]
  binding of corepressor motifs of NCOR1 and NCOR2 (SMRT) by ligand-GR complex: strongly bound

## C[C@]12CCC(=O)C=C1CC[C@@H]1[C@@H]2[C@@H](O)C[C@@]2(C)[C@H]1CC[C@]2(O)C(=O)CO [cortisol]
[1]
  interactions at a number of motifs (dexamethasone-exclusive cluster): without effect
[1]; [6]
  ligand-induced interaction at the majority of coregulator motifs: induced motif binding

## C[C@]12C[C@H](O)[C@H]3[C@@H](CCC4=CC(=O)CC[C@@]43C)[C@@H]1CC[C@@H]2C(=O)CO [corticosterone]
Male C57Bl/6J mice; [8]
  fat mass under subchronic corticosterone exposure: increase
  lean mass under subchronic corticosterone exposure: reduced
  plasma insulin under subchronic corticosterone exposure: induced hyperinsulinemia
  spleen weight under subchronic corticosterone exposure: decreased
Male C57Bl/6J mice; corticosterone pellet 5 days, no antagonist
  Eosinophil count: Not detected
[5]
  expression of GR target genes Fkbp5, Gilz, Sgk1, Mt2a after corticosterone injection: upregulated expression of all GR target genes
